Data: ChEMBL document CHEMBL1149335, “Dual-acting agents that possess free radical scavenging and antithrombotic activities: design, synthesis, and evaluation of phenolic tetrahydro-beta-carboline RGD peptide conjugates” (Bioorg Med Chem Lett, 2006)
Numbered stars: 1 amine (or outer) side, 2 acyl side, 3 side chain; on linkers, the order of the positions; unused ones are H or OH. Square brackets hold non-standard residues; d marks the D form. Peptide text beside a SMILES is read from it. X1 = COc1cc(C2c3[nH]c4ccccc4c3CC(C(=O)[*:2])N2[*:1])cc(OC)c1O

These molecules were tested on PC-12 (assay: H2O2 radical scavenging activity assessed in PC12 cells). Conditions: Rattus norvegicus.
Format: functional, cell-based

EC50	SMILES
43.7 µM	COc1cc(C2N[C@H](C(=O)O)Cc3c2[nH]c2ccccc32)cc(OC)c1O (stereo partly specified)
67.9 µM	COc1cc(C2NC(C(=O)N[C@@H](CCCN=C(N)N)C(=O)NCC(=O)N[C@@H](CC(=O)O)C(=O)N[C@@H](Cc3ccccc3)C(=O)O)Cc3c2[nH]c2ccccc32)cc(OC)c1O (stereo partly specified) (H-[X1]RGDF-OH)
30.6 µM	COc1cc(C2NC(C(=O)N[C@@H](CCCN=C(N)N)C(=O)NCC(=O)N[C@@H](CC(=O)O)C(=O)N[C@@H](CO)C(=O)O)Cc3c2[nH]c2ccccc32)cc(OC)c1O (stereo partly specified) (H-[X1]RGDS-OH)

The molecules below were run on PC-12 (assay: OH radical scavenging activity assessed in PC12 cells). Conditions: Rattus norvegicus.
Format: functional, cell-based

EC50	SMILES
90.4 µM	COc1cc(C2NC(C(=O)N[C@@H](CCCN=C(N)N)C(=O)NCC(=O)N[C@@H](CC(=O)O)C(=O)N[C@@H](Cc3ccccc3)C(=O)O)Cc3c2[nH]c2ccccc32)cc(OC)c1O (stereo partly specified) (H-[X1]RGDF-OH)
95.4 µM	COc1cc(C2NC(C(=O)N[C@@H](CCCN=C(N)N)C(=O)NCC(=O)N[C@@H](CC(=O)O)C(=O)N[C@@H](CO)C(=O)O)Cc3c2[nH]c2ccccc32)cc(OC)c1O (stereo partly specified) (H-[X1]RGDS-OH)

Species on record: Rattus norvegicus
Test: NO radical scavenging activity assessed as inhibition of Ach-induced vasorelaxation in rat aorta at 0.1 uM
Format: functional
Conditions: not given

SMILES	inhibition
COc1cc(C2N[C@H](C(=O)O)Cc3c2[nH]c2ccccc32)cc(OC)c1O (stereo partly specified)	57.2%
COc1cc(C2NC(C(=O)N[C@@H](CCCN=C(N)N)C(=O)NCC(=O)N[C@@H](CC(=O)O)C(=O)N[C@@H](Cc3ccccc3)C(=O)O)Cc3c2[nH]c2ccccc32)cc(OC)c1O (stereo partly specified) (H-[X1]RGDF-OH)	73.3%
COc1cc(C2NC(C(=O)N[C@@H](CCCN=C(N)N)C(=O)NCC(=O)N[C@@H](CC(=O)O)C(=O)N[C@@H](CO)C(=O)O)Cc3c2[nH]c2ccccc32)cc(OC)c1O (stereo partly specified) (H-[X1]RGDS-OH)	60.7%

Species on record: Oryctolagus cuniculus
Test: Effect on PAF-induced platelet aggregation in rabbit platelet-rich plasma at 10 uM
Format: functional
Conditions: not given

SMILES	Activity
COc1cc(C2N[C@H](C(=O)O)Cc3c2[nH]c2ccccc32)cc(OC)c1O (stereo partly specified)	36.34%
COc1cc(C2NC(C(=O)N[C@@H](CCCN=C(N)N)C(=O)NCC(=O)N[C@@H](CC(=O)O)C(=O)N[C@@H](Cc3ccccc3)C(=O)O)Cc3c2[nH]c2ccccc32)cc(OC)c1O (stereo partly specified) (H-[X1]RGDF-OH)	21.52%
COc1cc(C2NC(C(=O)N[C@@H](CCCN=C(N)N)C(=O)NCC(=O)N[C@@H](CC(=O)O)C(=O)N[C@@H](CO)C(=O)O)Cc3c2[nH]c2ccccc32)cc(OC)c1O (stereo partly specified) (H-[X1]RGDS-OH)	28.61%

Species on record: Rattus norvegicus
Test: NO radical scavenging activity assessed as inhibition of Ach-induced vasorelaxation in rat aorta at 0.01 uM
Format: functional
Conditions: not given

SMILES	inhibition
COc1cc(C2N[C@H](C(=O)O)Cc3c2[nH]c2ccccc32)cc(OC)c1O (stereo partly specified)	10.9%
COc1cc(C2NC(C(=O)N[C@@H](CCCN=C(N)N)C(=O)NCC(=O)N[C@@H](CC(=O)O)C(=O)N[C@@H](Cc3ccccc3)C(=O)O)Cc3c2[nH]c2ccccc32)cc(OC)c1O (stereo partly specified) (H-[X1]RGDF-OH)	25.4%
COc1cc(C2NC(C(=O)N[C@@H](CCCN=C(N)N)C(=O)NCC(=O)N[C@@H](CC(=O)O)C(=O)N[C@@H](CO)C(=O)O)Cc3c2[nH]c2ccccc32)cc(OC)c1O (stereo partly specified) (H-[X1]RGDS-OH)	12.8%

Species on record: Rattus norvegicus
Test: NO radical scavenging activity assessed as inhibition of Ach-induced vasorelaxation in rat aorta at 1 uM
Format: functional
Conditions: not given

SMILES	inhibition
COc1cc(C2N[C@H](C(=O)O)Cc3c2[nH]c2ccccc32)cc(OC)c1O (stereo partly specified)	79.9%
COc1cc(C2NC(C(=O)N[C@@H](CCCN=C(N)N)C(=O)NCC(=O)N[C@@H](CC(=O)O)C(=O)N[C@@H](Cc3ccccc3)C(=O)O)Cc3c2[nH]c2ccccc32)cc(OC)c1O (stereo partly specified) (H-[X1]RGDF-OH)	90.9%
COc1cc(C2NC(C(=O)N[C@@H](CCCN=C(N)N)C(=O)NCC(=O)N[C@@H](CC(=O)O)C(=O)N[C@@H](CO)C(=O)O)Cc3c2[nH]c2ccccc32)cc(OC)c1O (stereo partly specified) (H-[X1]RGDS-OH)	91.9%

Species on record: Oryctolagus cuniculus
Test: Effect on ADP-induced platelet aggregation in rabbit platelet-rich plasma at 10 uM
Format: functional
Conditions: not given

SMILES	Activity
COc1cc(C2N[C@H](C(=O)O)Cc3c2[nH]c2ccccc32)cc(OC)c1O (stereo partly specified)	27.33%
COc1cc(C2NC(C(=O)N[C@@H](CCCN=C(N)N)C(=O)NCC(=O)N[C@@H](CC(=O)O)C(=O)N[C@@H](Cc3ccccc3)C(=O)O)Cc3c2[nH]c2ccccc32)cc(OC)c1O (stereo partly specified) (H-[X1]RGDF-OH)	13.11%
COc1cc(C2NC(C(=O)N[C@@H](CCCN=C(N)N)C(=O)NCC(=O)N[C@@H](CC(=O)O)C(=O)N[C@@H](CO)C(=O)O)Cc3c2[nH]c2ccccc32)cc(OC)c1O (stereo partly specified) (H-[X1]RGDS-OH)	11.33%

Species on record: Oryctolagus cuniculus
Test: Effect on ADP-induced platelet aggregation in rabbit platelet-rich plasma at 1 uM
Format: functional
Conditions: not given

SMILES	Activity
COc1cc(C2N[C@H](C(=O)O)Cc3c2[nH]c2ccccc32)cc(OC)c1O (stereo partly specified)	46.65%
COc1cc(C2NC(C(=O)N[C@@H](CCCN=C(N)N)C(=O)NCC(=O)N[C@@H](CC(=O)O)C(=O)N[C@@H](Cc3ccccc3)C(=O)O)Cc3c2[nH]c2ccccc32)cc(OC)c1O (stereo partly specified) (H-[X1]RGDF-OH)	29.43%
COc1cc(C2NC(C(=O)N[C@@H](CCCN=C(N)N)C(=O)NCC(=O)N[C@@H](CC(=O)O)C(=O)N[C@@H](CO)C(=O)O)Cc3c2[nH]c2ccccc32)cc(OC)c1O (stereo partly specified) (H-[X1]RGDS-OH)	28.31%

Species on record: Oryctolagus cuniculus
Test: Effect on ADP-induced platelet aggregation in rabbit platelet-rich plasma at 0.1 uM
Format: functional
Conditions: not given

SMILES	Activity
COc1cc(C2N[C@H](C(=O)O)Cc3c2[nH]c2ccccc32)cc(OC)c1O (stereo partly specified)	54.88%
COc1cc(C2NC(C(=O)N[C@@H](CCCN=C(N)N)C(=O)NCC(=O)N[C@@H](CC(=O)O)C(=O)N[C@@H](Cc3ccccc3)C(=O)O)Cc3c2[nH]c2ccccc32)cc(OC)c1O (stereo partly specified) (H-[X1]RGDF-OH)	38%
COc1cc(C2NC(C(=O)N[C@@H](CCCN=C(N)N)C(=O)NCC(=O)N[C@@H](CC(=O)O)C(=O)N[C@@H](CO)C(=O)O)Cc3c2[nH]c2ccccc32)cc(OC)c1O (stereo partly specified) (H-[X1]RGDS-OH)	49.37%

Species on record: Oryctolagus cuniculus
Test: Effect on PAF-induced platelet aggregation in rabbit platelet-rich plasma at 1 uM
Format: functional
Conditions: not given

SMILES	Activity
COc1cc(C2N[C@H](C(=O)O)Cc3c2[nH]c2ccccc32)cc(OC)c1O (stereo partly specified)	51.42%
COc1cc(C2NC(C(=O)N[C@@H](CCCN=C(N)N)C(=O)NCC(=O)N[C@@H](CC(=O)O)C(=O)N[C@@H](Cc3ccccc3)C(=O)O)Cc3c2[nH]c2ccccc32)cc(OC)c1O (stereo partly specified) (H-[X1]RGDF-OH)	25.33%
COc1cc(C2NC(C(=O)N[C@@H](CCCN=C(N)N)C(=O)NCC(=O)N[C@@H](CC(=O)O)C(=O)N[C@@H](CO)C(=O)O)Cc3c2[nH]c2ccccc32)cc(OC)c1O (stereo partly specified) (H-[X1]RGDS-OH)	34.59%

Species on record: Oryctolagus cuniculus
Test: Effect on PAF-induced platelet aggregation in rabbit platelet-rich plasma at 0.1 uM
Format: functional
Conditions: not given

SMILES	Activity
COc1cc(C2N[C@H](C(=O)O)Cc3c2[nH]c2ccccc32)cc(OC)c1O (stereo partly specified)	55.8%
COc1cc(C2NC(C(=O)N[C@@H](CCCN=C(N)N)C(=O)NCC(=O)N[C@@H](CC(=O)O)C(=O)N[C@@H](Cc3ccccc3)C(=O)O)Cc3c2[nH]c2ccccc32)cc(OC)c1O (stereo partly specified) (H-[X1]RGDF-OH)	36.59%
COc1cc(C2NC(C(=O)N[C@@H](CCCN=C(N)N)C(=O)NCC(=O)N[C@@H](CC(=O)O)C(=O)N[C@@H](CO)C(=O)O)Cc3c2[nH]c2ccccc32)cc(OC)c1O (stereo partly specified) (H-[X1]RGDS-OH)	55.62%

Each molecule was assayed on Rattus norvegicus (assay: Decrease in weight of wet thrombus in rat at 5 umol/kg). Conditions: not given.
Format: functional

SMILES	Activity
COc1cc(C2N[C@H](C(=O)O)Cc3c2[nH]c2ccccc32)cc(OC)c1O (stereo partly specified)	43.76 mg
COc1cc(C2NC(C(=O)N[C@@H](CCCN=C(N)N)C(=O)NCC(=O)N[C@@H](CC(=O)O)C(=O)N[C@@H](Cc3ccccc3)C(=O)O)Cc3c2[nH]c2ccccc32)cc(OC)c1O (stereo partly specified) (H-[X1]RGDF-OH)	22.09 mg
COc1cc(C2NC(C(=O)N[C@@H](CCCN=C(N)N)C(=O)NCC(=O)N[C@@H](CC(=O)O)C(=O)N[C@@H](CO)C(=O)O)Cc3c2[nH]c2ccccc32)cc(OC)c1O (stereo partly specified) (H-[X1]RGDS-OH)	28.01 mg

These molecules were tested on Rattus norvegicus (assay: Decrease in weight of dry thrombus in rat at 5 umol/kg). Conditions: not given.
Format: functional

SMILES	Activity
COc1cc(C2N[C@H](C(=O)O)Cc3c2[nH]c2ccccc32)cc(OC)c1O (stereo partly specified)	7.27 mg
COc1cc(C2NC(C(=O)N[C@@H](CCCN=C(N)N)C(=O)NCC(=O)N[C@@H](CC(=O)O)C(=O)N[C@@H](Cc3ccccc3)C(=O)O)Cc3c2[nH]c2ccccc32)cc(OC)c1O (stereo partly specified) (H-[X1]RGDF-OH)	2.68 mg
COc1cc(C2NC(C(=O)N[C@@H](CCCN=C(N)N)C(=O)NCC(=O)N[C@@H](CC(=O)O)C(=O)N[C@@H](CO)C(=O)O)Cc3c2[nH]c2ccccc32)cc(OC)c1O (stereo partly specified) (H-[X1]RGDS-OH)	5 mg

The molecules below were run on PC-12 (assay: NO radical scavenging activity assessed in PC12 cells). Conditions: Rattus norvegicus.
Format: functional, cell-based

EC50	SMILES
89.7 µM	COc1cc(C2N[C@H](C(=O)O)Cc3c2[nH]c2ccccc32)cc(OC)c1O (stereo partly specified)
92.8 µM	COc1cc(C2NC(C(=O)N[C@@H](CCCN=C(N)N)C(=O)NCC(=O)N[C@@H](CC(=O)O)C(=O)N[C@@H](Cc3ccccc3)C(=O)O)Cc3c2[nH]c2ccccc32)cc(OC)c1O (stereo partly specified) (H-[X1]RGDF-OH)
87.6 µM	COc1cc(C2NC(C(=O)N[C@@H](CCCN=C(N)N)C(=O)NCC(=O)N[C@@H](CC(=O)O)C(=O)N[C@@H](CO)C(=O)O)Cc3c2[nH]c2ccccc32)cc(OC)c1O (stereo partly specified) (H-[X1]RGDS-OH)
